# Source: US12194081B2, “ARGINASE1 polypeptides” (IO BIOTECH APS, priority 2018, dated 2025)
# Legend:
# [1] = tested on: CD4+ and CD8+ T cells in PBMCs; test: Intracellular staining for IFNγ and TNFα in CD4+ and CD8+ T cells; assay type: cell-based, human
# Procedure: Intracellular staining of cell cultures was performed after PBMCs were stimulated with arginase-derived peptides for 5 hours in the presence of BD GolgiPlug™ (added after the first hour of peptide stimulation). Stimulated cells were stained with fluorescently labeled antibodies for surface markers (CD3, CD4, CD8) and thereafter permeabilized by using Fixation/Permeabilization and Permeabilization Buffer (eBioscience, cat. 00-5123-43), according to manufacturer's instructions. Permeabilized cells were then stained with fluorochrome-labeled antibodies for IFNγ and TNFα. Flow cytometry analysis was performed on a FACSCanto™ II (BD Biosciences). Antibodies used: IFNγ-APC (cat. 341117), TNFα-455 BV421 (cat. 562783), CD4-FITC (cat. 347413), CD8-PerCP (cat. 345774), CD3-APC-H7 (cat. 560275) (all from BD Biosciences), dead cells stain-FVS510 (564406, BD Biosciences) according to manufacturer's instructions.
# B16F10 melanoma = test: Tumour vaccination, B16F10 melanoma tumour model; assay type: in vivo, mouse; settings: 100 μg ArgLong2 with Montanide, days 0, 7, 14; FIG. 8
# Procedure: Animals were vaccinated subcutaneously with 100 μg peptide in DMSO/H2O in a 1:1 emulsion with incomplete Montanide ISA 51 VG. Montanide ISA 51 VG+DMSO/H2O served as a control vaccine. For subsequent analysis of the immune response to the ArgLong2 peptide, mice were sacrificed on day 7 and spleen and draining lymph nodes (dLNs) were harvested for ELISPOT setup.
# Each animal was inoculated subcutaneously into the right flank with 0.5×10^6 syngeneic tumour cells in 100 μl media. Both the syngeneic B16 F10 melanoma cells line and the syngeneic MC38 colon adenocarcinoma cell line were used. Vaccinations were initiated on day 0 and repeated once a week (day 7 and day 14). Peptide and control vaccinations were performed as described above.
# Tumour growth was monitored and tumours were measured approximately every second day. Tumour volume was calculated at V [mm^3]=L×W^2/2 (where L is the longest diameter and W perpendicular to L). Maximum tumor size before mice were euthanized was 864 mm^3 (L=12 mm, W=12 mm).
# [2] = tested on: PBMCs from healthy donors and cancer patients; test: ex vivo IFNγ ELISPOT of PBMCs without prior peptide stimulation; assay type: cell-based, human; settings: 4 healthy donors and 2 cancer patients; FIG. 4A
# Procedure: For in vitro ELISPOT, PBMCs from cancer patients and healthy donors were pulsed with 20 μM of Arginase 1-derived peptides and 120 U/ml IL-2 in 24-well plates for 7 days before being used in an ELISPOT assay. The cells were placed in 96-well nitrocellulose ELISPOT plates (MultiScreen MAIP N45; Millipore) pre-coated with IFNγ capture antibody (Mabtech). Arginase peptides added to a final concentration of 5 μM and plates incubated at 37° C. for 14-16 hours. After the incubation the cells were washed off and secondary biotinylated Ab (Mabtech, cat. 3420-6-1000) was added for 2 hours at room temperature. Unbound secondary antibody was washed off and streptavidin conjugated alkaline phosphatase (AP) (Mabtech, cat. 3310-10) was added for 1 hour at room temperature. Unbound conjugated enzyme was washed off and the assay was developed by adding BCIP/NBT substrate (Mabtech, cat. 3650-10). Developed ELISPOT plates were analyzed on CTL ImmunoSpot S6 Ultimate-V analyzer using Immunospot software v5.1. Responses were reported as the difference between average numbers of spots in wells stimulated with Arginase 1 and wells without added peptide.
# PBMCs from 4 healthy donors and 2 cancer patients (1 breast cancer and 1 malignant melanoma) that had shown strong responses in in vitro ELISPOT were directly tested for responses to ArgLong2 peptide in ex vivo IFNγ ELISPOT.
# [3] = tested on: PBMCs stimulated with IL-4, IL-13 or IL-2; test: IFNγ ELISPOT of PBMCs pre-stimulated with Th2 cytokine (IL-4/IL-13) or IL-2; assay type: cell-based, human
# Source text: To check for IL-4 induced Arg1 responses, PBMCs were stimulated with IL-4 (100 or 50 U/ml) and/or IL-2 (120 or 60 U/ml) for a week before being set up in the ELISPOT assay as described above.
# The PBMCs were thawed and stimulated with IL-4, (50 U/ml or 100 U/ml), IL-2 (120 U/ml) or a combination of IL-4 and IL-2 (50 U/ml and 60 U/ml respectively) for one week before being tested in IFNγ ELISPOT for responses against ArgLong2. Non-stimulated cells were used as control.
# Next, PBMCs from 2 cancer patients (BC30 (breast cancer), MM27 (malignant melanoma)) and 6 healthy donors that had previously shown strong spontaneous ex vivo responses against ArgLong2 were stimulated with either low dose IL-2 (120 U/ml) or IL-4 (100 U/ml) for 7 days. Non-stimulated cells were used as control. After 7 days in culture, PBMCs were tested for reactivity against ArgLong2 in IFNγ ELISPOT.
# In a separate experiment, PBMCs from a healthy donor (HD22, known to have a pre-existing ex vivo response against ArgLong2) were treated with IL-4 (100 U/ml) or IL-13 (20 U/ml) for 7 days in order to increase presentation of the Arginase 1-derived peptides in the PBMC culture and thus stimulate the intrinsic ArgLong2 specific T cells present in the PBMCs. After 7 days of stimulation with IL-4 or IL-13, the PBMCs were analysed in IFNγ ELISPOT assay to check the changes in the frequency of the ArgLong2-specific T cells.
sequence,measurement,setting,value
"ISAKDIVYIGLRDVDPGEHYILKTLGIKYFSMTEVDRL (Peptide fragment of human Arginase 1 (ArgLong2)) [38-mer, positions 169-206 of full length human Arginase 1]","ex vivo CD4+ responses, intracellular staining","[1]; PBMCs from two cancer patients (MM27, BC30) without prior peptide stimulation, FIG. 3B left",ex vivo CD4+ responses in PBMCs from both cancer patients
same,"ex vivo CD8+ responses, intracellular staining","[1]; PBMCs from two cancer patients (MM27, BC30) without prior peptide stimulation, FIG. 3B right",ex vivo CD8+ responses in the breast cancer patient PBMCs
same,"CD4+ T cell responses, in vitro intracellular staining","[1]; two healthy donors and one breast cancer patient, one week after stimulation with ArgLong2 and low dose IL-2, FIG. 3A left",detected in one healthy donor and in the breast cancer patient PBMCs
same,"CD8+ T cell responses, in vitro intracellular staining","[1]; two healthy donors and one breast cancer patient, one week after stimulation with ArgLong2 and low dose IL-2, other healthy donor showed only CD8+ response, FIG. 3A right",detected in one healthy donor and in the breast cancer patient PBMCs
same,"tumour growth vs control vaccination, B16",B16F10 melanoma,significantly delay tumour growth
same,spontaneous responses in ex vivo IFNγ ELISPOT,[2],significant spontaneous responses in all 6 donors
same,ArgLong2 responses in IL-4 and IL-13 treated PBMC cultures,"[3]; healthy donor HD22, IL-4 100 U/ml or IL-13 20 U/ml for 7 days, vs untreated control, FIG. 10",Increased ArgLong2 responses
same,cultures with increased responses in IL-4 stimulated cultures,"[3]; out of 8 cultures (2 cancer patients, 6 healthy donors), IL-4 100 U/ml for 7 days vs unstimulated and IL-2 stimulated controls, FIG. 5B",6 cultures
same,responses against ArgLong2 after IL-4 stimulation of PBMCs,"[3]; single melanoma patient, IL-4 50 or 100 U/ml, IL-2 120 U/ml or IL-4+IL-2 for one week, compared with no stimulation or IL-2 alone, FIG. 5A",Strong significant responses were seen in all IL-4 stimulated groups
